Patent US20230303575A1, “FGFR AND MUTATION INHIBITOR THEREOF, PREPARATION METHOD THEREFOR AND USE THEREOF” (Abbisko Therapeutics Co., Ltd., priority 2020, published 2023)

Columns and labels:
Format in all cases: cell-based
FGFR2 V564L = target: T1, FGFR2 V564L (Homo sapiens, UniProt P21802, V564L); assay: Cell proliferation assay for Tel-FGFR2 V564L in BaF3; conditions: BaF3 cells expressing FGFR2 V564L fusion, 48 hrs, CellTiter Glo
T1 construct: P41212 (Transcription factor ETV6)
Method: (§1) By transfection, cell strains of the intracellular kinase domain fusion protein of TEL-FGFR2 WT or the intracellular domain fusion proteins containing FGFR2 V564, V564F, V564L, N549K and K659M mutations were stably expressed in Baf cells. On day 1, the cell suspension was plated into a 96-well plate containing growth medium (DMEM containing 1% Glutamax, 10% FBS and 1% Pen/Strep) at 2000-4000 cells/90 μL/per well, and then the mixture was incubated overnight at 37° C. and 5% CO2. On day 2, 10 μL of growth medium containing a 10-fold stock solution of test compound was added to the cell culture (9 dose points, 3× serial dilution, starting from 1 μM, finally 0.3% DMSO). After incubation at 37° C. and 5% CO2 for 48 hrs, 50 μL of CellTiter Glo (CTG) reagent was added to the cell-containing 96-well plate on day 3, and the plate was then incubated at room temperature for 10 min. Then relative light units (RLUs) were measured on a microplate reader with a luminescence detection module. RLU values were normalized to % survival, and concentration-response curves were plotted using Prism to calculate IC50 (nM).

FGFR2 N549K = target: T2, FGFR2 N549K (Homo sapiens, UniProt P21802, N549K); assay: Cell proliferation assay for Tel-FGFR2 N549K in BaF3; conditions: BaF3 cells expressing FGFR2 N549K fusion, 48 hrs, CellTiter Glo
T2 construct: P41212 (Transcription factor ETV6)
Method: as §1

FGFR2 V564F = target: T3, FGFR2 V564F (Homo sapiens, UniProt P21802, V564F); assay: Cell proliferation assay for Tel-FGFR2 V564F in BaF3; conditions: BaF3 cells expressing FGFR2 V564F fusion, 48 hrs, CellTiter Glo
T3 construct: P41212 (Transcription factor ETV6)
Method: as §1

FGFR3 V555M = target: T4, FGFR3 V555M (Homo sapiens, UniProt P22607, V555M); assay: Cell proliferation assay for FGFR3 V555M in BaF3; conditions: BaF3 cells expressing FGFR3 V555M fusion, 48 hrs, CellTiter Glo
T4 construct: P41212 (Transcription factor ETV6)
Method: (§2) For the compounds of the Examples of the present invention, cell strains of TEL-FGFR3 WT intracellular kinase domain fusion protein or intracellular domain fusion protein containing FGFR3 V555M or FGFR3 N540K mutation were stably expressed in Baf cells by transfection and were used to determine the cell proliferation effect of BaF3-Tel-FGFR3 WT. FGFR3 V555M or FGFR3 N540K. The specific test process was as follows: • 1) The cell suspension was plated into a 96-well plate containing growth medium (DMEM containing 1% Glutamax, 10% FBS and 1% Pen/Strep) at 2000-4000 cells/90 μL/per well, and then the mixture was incubated overnight at 37° C. and 5% CO2. • 2) 10 μL of growth medium containing a 10-fold stock solution of test compound was added to the cell culture (9 dose points, 3× serial dilution, starting from 1 μM, finally 0.3% DMSO). • 3) The mixture was incubated at 37° C. and 5% CO2 for 48 hrs. • 4) 50 μL of CellTiter Glo (CTG) reagent was added to the cell-containing 96-well plate, and the plate was then incubated at room temperature for 10 min. • 5) Relative light units (RLUs) were measured on a microplate reader with a luminescence detection module. RLU values were normalized to % survival, and concentration-response curves were plotted using Prism to calculate IC50 (nM).

FGFR2 V564I = target: T5, FGFR2 V564I (Homo sapiens, UniProt P21802, V564I); assay: Cell proliferation assay for Tel-FGFR2 V564I in BaF3; conditions: BaF3 cells expressing FGFR2 V564I fusion, 48 hrs, CellTiter Glo
T5 construct: P41212 (Transcription factor ETV6)
Method: as §1

FGFR2 K659M = target: T6, FGFR2 K659M (Homo sapiens, UniProt P21802, K659M); assay: Cell proliferation assay for Tel-FGFR2 K659M in BaF3; conditions: BaF3 cells expressing FGFR2 K659M fusion, 48 hrs, CellTiter Glo
T6 construct: P41212 (Transcription factor ETV6)
Method: as §1

FGFR3 N540K = target: T7, FGFR3 N540K (Homo sapiens, UniProt P22607, N540K); assay: Cell proliferation assay for FGFR3 N540K in BaF3; conditions: BaF3 cells expressing FGFR3 N540K fusion, 48 hrs, CellTiter Glo
T7 construct: P41212 (Transcription factor ETV6)
Method: as §2

T4 sequence (P22607 472-761 V555M limits assumed): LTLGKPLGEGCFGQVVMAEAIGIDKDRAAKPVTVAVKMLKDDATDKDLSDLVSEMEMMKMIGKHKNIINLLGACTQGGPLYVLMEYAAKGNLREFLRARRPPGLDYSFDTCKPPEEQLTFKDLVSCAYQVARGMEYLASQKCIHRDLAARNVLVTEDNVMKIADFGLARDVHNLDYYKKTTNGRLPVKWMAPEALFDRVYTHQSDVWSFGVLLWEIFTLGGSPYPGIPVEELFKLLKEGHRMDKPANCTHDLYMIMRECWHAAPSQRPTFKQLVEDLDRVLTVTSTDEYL
T5 sequence (P21802 481-770 V564I limits assumed): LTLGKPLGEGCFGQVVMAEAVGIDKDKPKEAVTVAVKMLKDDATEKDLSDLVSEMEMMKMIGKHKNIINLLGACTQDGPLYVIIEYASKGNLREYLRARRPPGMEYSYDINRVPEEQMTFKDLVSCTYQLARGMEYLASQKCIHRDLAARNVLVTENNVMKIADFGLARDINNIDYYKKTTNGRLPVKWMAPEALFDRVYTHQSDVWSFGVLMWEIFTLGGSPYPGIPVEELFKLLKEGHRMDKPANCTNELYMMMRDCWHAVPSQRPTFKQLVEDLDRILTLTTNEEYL
T2 sequence (P21802 481-770 N549K limits assumed): as the sequence (P21802 481-770 V564I limits assumed) above, with N69K, I84V counted along it
T1 sequence (P21802 481-770 V564L limits assumed): as the sequence (P21802 481-770 V564I limits assumed) above, with I84L counted along it
T6 sequence (P21802 481-770 K659M limits assumed): as the sequence (P21802 481-770 V564I limits assumed) above, with I84V, K179M counted along it
T3 sequence (P21802 481-770 V564F limits assumed): as the sequence (P21802 481-770 V564I limits assumed) above, with I84F counted along it
T7 sequence (P22607 472-761 N540K limits assumed): as the sequence (P22607 472-761 V555M limits assumed) above, with N69K, M84V counted along it

IC50 (FGFR2 V564L) [nM] | IC50 (FGFR2 N549K) [nM] | IC50 (FGFR2 V564F) [nM] | IC50 (FGFR3 V555M) [nM] | IC50 (FGFR2 V564I) [nM] | IC50 (FGFR2 K659M) [nM] | IC50 (FGFR3 N540K) [nM] | SMILES
5 to 50 | 5 to 50 | 0.5 to 5 | 5 to 50 |  |  |  | C=CC(=O)N1CC[C@H](n2cc(C#Cc3ccc4oc(NC)nc4c3)c3c(N)ncnc32)C1 [Example 7, (S)-1-(3-(4-amino-5-((2-(methylamino)benzo[d]oxazol-5-yl)ethynyl)-7H-pyrrolo[2,3-d]pyrimidin-7-yl)pyrrolidin-1-yl)prop-2-en-1-one]
 |  | ≤ 0.5 | 0.5 to 5 | ≤ 0.5 | 0.5 to 5 |  | C=CC(=O)N1CC[C@H](n2nc(C#Cc3cc4nc(C5(F)CC5)oc4cc3F)c3c(N)ncnc32)C1 [Example 36]
0.5 to 5 | 5 to 50 | 5 to 50 | 50 to 500 |  |  |  | C=CC(=O)N1CC[C@H](n2nc(C#Cc3cnc4sc(C)nc4c3)c3c(N)ncnc32)C1 [Example 41, (S)-1-(3-(4-amino-3-((2-methylthiazolo[5,4-6]pyridin-6-yl)ethynyl)-1H-pyrazolo [3,4-d]pyrimidin-1-yl)pyrrolidin-1-yl)prop-2-en-1-one]
0.5 to 5 | 0.5 to 5 | ≤ 0.5 | 5 to 50 |  | 5 to 50 |  | C=CC(=O)N1CC[C@H](n2cc(C#Cc3ccc4sc(C)nc4c3)c3c(N)ncnc32)C1 [Example 42, (S)-1-(3-(4-amino-5-((2-methylbenzo[d]thiazol-5-yl)ethynyl)-7H-pyrrolo[2,3-d]pyrimidin-7-yl)pyrrolidin-1-yl)prop-2-en-1-one]
0.5 to 5 | 0.5 to 5 | 0.5 to 5 | 5 to 50 | ≤ 0.5 |  |  | C=CC(=O)N1CC[C@H](n2cc(C#Cc3ccc4sc(CC)nc4c3)c3c(N)ncnc32)C1 [Example 44, (S)-1-(3-(4-amino-5-((2-ethylbenzo[d]thiazol-5-yl)ethynyl)-7H-pyrrolo[2,3-d]pyrimidin-7-yl)pyrrolidin-1-yl)prop-2-en-1-one]
0.5 to 5 | 0.5 to 5 | 0.5 to 5 | 5 to 50 |  |  |  | C=CC(=O)N1CC[C@H](n2cc(C#Cc3ccc4sc(C(F)F)nc4c3)c3c(N)ncnc32)C1 [Example 45, (S)-1-(3-(4-amino-5-((2-(difluoromethyl)benzo[d]thiazol-5-yl)ethynyl)-7H-pyrrolo[2,3-d]pyrimidin-7-yl)pyrrolidin-1-yl)prop-2-en-1-one]
0.5 to 5 | 0.5 to 5 | 0.5 to 5 | 0.5 to 5 | ≤ 0.5 |  |  | C=CC(=O)N1CC[C@H](n2cc(C#Cc3cc4nc(C5CC5)sc4cc3F)c3c(N)ncnc32)C1 [Example 48, (S)-1-(3-(4-amino-5-((2-cyclopropyl-6-fluorobenzo [d]thiazol-5-yl)ethynyl)-7H-pyrrolo[2,3-d]pyrimidin-7-yl)pyrrolidin-1-yl)prop-2-en-1-one]
0.5 to 5 | 0.5 to 5 | ≤ 0.5 | 0.5 to 5 | ≤ 0.5 |  |  | C=CC(=O)N1CC[C@H](n2cc(C#Cc3c(F)cc4sc(C5CC5)nc4c3F)c3c(N)ncnc32)C1 [Example 51, (S)-1-(3-(4-amino-5-((2-cyclopropyl-4,6-difluoro-benzo[d]thiazol-5-yl)ethynyl)-7H-pyrrolo[2,3-d]pyrimidin-7-yl)pyrrolidin-1-yl) prop-2-en-1-one]
5 to 50 | 5 to 50 | 0.5 to 5 | 5 to 50 |  |  |  | C=CC(=O)N1CC[C@H](n2nc(C#Cc3ccc4sc(C)nc4c3)c3c(N)ncnc32)C1 [Example 52, (S)-1-(3-(4-amino-3-((2-methylbenzo[d]thiazol-5-yl)ethynyl)-1H-pyrazolo [3,4-d]pyrimidin-1-yl)pyrrolidin-1-yl)prop-2-en-1-one]
0.5 to 5 | 0.5 to 5 | 0.5 to 5 | 5 to 50 | ≤ 0.5 |  |  | C=CC(=O)N1CC[C@H](n2nc(C#Cc3ccc4sc(CC)nc4c3)c3c(N)ncnc32)C1 [Example 53, (S)-1-(3-(4-amino-3-((2-ethylbenzo[d]thiazol-5-yl)ethynyl)-1H-pyrazolo[3,4-d]pyrimidin-1-yl)pyrrolidin-1-yl)prop-2-en-1-one]
0.5 to 5 | 0.5 to 5 | 0.5 to 5 | 5 to 50 |  |  |  | C=CC(=O)N1CC[C@H](n2nc(C#Cc3ccc4sc(C5CC5)nc4c3)c3c(N)ncnc32)C1 [Example 54, (S)-1-(3-(4-amino-3-((2-cyclopropylbenzo[d]thiazol-5-yl)ethynyl)-1H-pyrazolo [3,4-d]pyrimidin-1-yl)pyrrolidin-1-yl)prop-2-en-1-one]
5 to 50 | 0.5 to 5 | 5 to 50 | 5 to 50 |  |  |  | C=CC(=O)N1CC[C@H](n2nc(C#Cc3ccc4sc(C(F)F)nc4c3)c3c(N)ncnc32)C1 [Example 55, (S)-1-(3-(4-amino-3-((2-(difluoromethyl)benzo[d]thiazol-5-yl)ethynyl)-1H-pyrazolo[3,4-d]pyrimidin-1-yl)pyrrolidin-1-yl)prop-2-en-1-one]
0.5 to 5 | 0.5 to 5 | ≤ 0.5 | 5 to 50 | ≤ 0.5 |  |  | C=CC(=O)N1CC[C@H](n2nc(C#Cc3cc4nc(C)sc4cc3F)c3c(N)ncnc32)C1 [Example 57, (S)-1-(3-(4-amino-3-((6-fluoro-2-methylbenzo[d]thiazol-5-yl)ethynyl)-1H-pyrazolo[3,4-d]pyrimidin-1-yl)pyrrolidin-1-yl)prop-2-en-1-one]
0.5 to 5 | 0.5 to 5 | 0.5 to 5 | 0.5 to 5 | ≤ 0.5 |  |  | C=CC(=O)N1CC[C@H](n2nc(C#Cc3cc4nc(C5CC5)sc4cc3F)c3c(N)ncnc32)C1 [Example 59, (S)-1-(3-(4-amino-3-((2-cyclopropyl-6-fluorobenzo [d]thiazol-5-yl)ethynyl)-1H-pyrazolo[3,4-d]pyrimidin-1-yl)pyrrolidin-1-yl) prop-2-en-1-one]
 |  | 0.5 to 5 | 0.5 to 5 |  |  | 5 to 50 | C=CC(=O)N1CC[C@H](n2nc(C#Cc3c(F)cc4oc(NC)nc4c3F)c3c(N)ncnc32)C1 [Example 67, (S)-1-(3-(4-amino-3-((4,6-difluoro-2-(methylamino)benzo[d]oxazol-5-yl)ethynyl)-1H-pyrazolo[3,4-d]pyrimidin-1-yl)pyrrolidin-1-yl)prop-2-en-1-one]
0.5 to 5 | 0.5 to 5 | ≤ 0.5 | ≤ 0.5 |  | 5 to 50 |  | C=CC(=O)N1C[C@@H](n2nc(C#Cc3c(F)cc4sc(N5CCC5)nc4c3F)c3c(N)ncnc32)C[C@@H]1COC [Example 69, 1-((2R,4S)-4-(4-amino-3-((2-(azetidin-1-yl)-4,6-difluorobenzo[d]thiazol-5-yl)ethynyl)-1H-pyrazolo[3,4-d]pyrimidin-1-yl)-2-(methoxy-methyl)pyrrolidin-1-yl)prop-2-en-1-one]
5 to 50 | 0.5 to 5 | 0.5 to 5 | 5 to 50 |  |  |  | C=CC(=O)N1CC[C@H](n2cc(C#Cc3ccc4oc(C(F)F)nc4c3)c3c(N)ncnc32)C1 [Example 71, (S)-1-(3-(4-amino-5-((2-(difluoromethyl)benzo[d]oxazol-5-yl)ethynyl)-7H-pyrrolo[2,3-d]pyrimidin-7-yl)pyrrolidin-1-yl)prop-2-en-1-one]
 |  | 0.5 to 5 | 0.5 to 5 | ≤ 0.5 | 0.5 to 5 |  | C=CC(=O)N1CC[C@H](n2cc(C#Cc3c(F)cc4sc(C)nc4c3F)c3c(N)ncnc32)C1 [Example 75, (S)-1-(3-(4-amino-5-((4,6-difluoro-2-methylbenzo[d]thiazol-5-yl)ethynyl)-7H-pyrrolo[2,3-d]pyrimidin-7-yl)pyrrolidin-1-yl)prop-2-en-1-one]
